{
  "source": "patent US8835377B2",
  "about": "“Oral delivery of peptide pharmaceutical compositions” (UGP Therapeutics, Inc., priority 2004, dated 2014)",
  "assay": "Pharmacokinetics after duodenal injection of unformulated or formulated Dmt-DALDA in anesthetized rats (plasma, HPLC-UV)",
  "format": "in vivo",
  "conditions": "for Tmax / Cmax / AUC: Unformulated; for Cmax / AUC: rat; for AUC: trapezoidal rule; for Dmt-DALDA plasma concentration: unformulated",
  "experimental": "In the experiments represented in the subject Figure, six anesthetized rats (which were color-coded as: red, white, blue, orange, green and yellow) were given 0.7 mL Dmt-DALDA (1.6 mg/mL) with a syringe through a 27 gauge needle into the duodenum. This injection procedure was followed due to the technical difficulty inherent in preparing capsules which can be swallowed by small animals the size of a rat. The intraduodanal injection, therefore, mimics the release of the components of an enteric-coated capsule formulation which would pass through the esophagus and stomach and release its contents in the duodenum. Three of the rats (red, white and blue) were given Unformulated Dmt-DALDA in which there were no additional components (i.e., other than the Dmt-DALDA), while the other three rats (orange, green and yellow) were given Formulated Dmt-DALDA which included, in addition to the Dmt-DALDA, 0.5M citric acid and lauroyl carnitine (10 mg/ml). Samples of blood were taken from the carotid artery through an indwelling catheter before and 5, 15, 30, 60 and 120 minutes after the administration of the respective formulations (i.e., Formulated and Unformulated). The blood samples were centrifuged and the resulting plasma supernatants were stored frozen at −20° C. […] Peptide was detected with an ultraviolet (UV) detector set at a wavelength of 210 nm. […] Table I, moreover, provides the standard deviations for the data obtained regarding each of the test rats, which standard deviations are also indicated in FIG. 1.\nTable II (below) summarizes the pharmacokinetic parameters in rats of orally administered unformulated and formulated Dmt-DALDA as those terms are defined above. Cmax refers to the maximum concentration of peptide detected in the rat plasma. The area under the curve (AUC) is a measure of the extent of peptide absorption and is calculated by the trapezoidal rule from a plot of peptide concentration as a function of time. Tmax indicates when the maximum concentration of the Dmt-DALDA in the blood serum was obtained.",
  "note": "Where two headings read alike, the source gives them in different places.",
  "data": [
    {"smiles": "Cc1cc(O)cc(C)c1C[C@H](N)C(=O)N[C@H](CCCNC(=N)N)C(=O)N[C@@H](Cc1ccccc1)C(=O)N[C@@H](CCCCN)C(N)=O", "note": "[unformulated]", "values": [
      {"measurement": "Tmax", "setting": "Avg (n = 3)", "value": 5.00, "unit": "min"},
      {"measurement": "Tmax", "setting": "in vivo, 1.12 mg, Red rat, read-out: Tmax (converted)", "value": 5, "unit": "min"},
      {"measurement": "Cmax", "setting": "in vivo, 1.12 mg, Avg (n = 3)", "value": 510, "unit": "ng/mL"},
      {"measurement": "AUC", "setting": "in vivo, 1.12 mg, Avg (n = 3)", "value": 64, "unit": "ng·h/mL"},
      {"measurement": "Cmax", "setting": "in vivo, 1.12 mg, Red rat", "value": 1540, "unit": "ng/mL"},
      {"measurement": "AUC", "setting": "in vivo, 1.12 mg, Red rat", "value": 192, "unit": "ng·h/mL"},
      {"measurement": "Dmt-DALDA detected in plasma", "setting": "rats given unformulated Dmt-DALDA", "value": "virtually undetectable"},
      {"measurement": "Dmt-DALDA plasma concentration", "setting": "avg of rats, 0 min", "value": 0.00, "unit": "µg/mL"},
      {"measurement": "Dmt-DALDA plasma concentration", "setting": "avg of rats, 15 min", "value": 0.00, "unit": "µg/mL"},
      {"measurement": "Dmt-DALDA plasma concentration", "setting": "avg of rats, 30 min", "value": 0.00, "unit": "µg/mL"},
      {"measurement": "Dmt-DALDA plasma concentration", "setting": "avg of rats, 60 min", "value": 0.00, "unit": "µg/mL"},
      {"measurement": "Dmt-DALDA plasma concentration", "setting": "avg of rats, 120 min", "value": 0.00, "unit": "µg/mL"},
      {"measurement": "Dmt-DALDA plasma concentration", "setting": "blue rat, 0 min", "value": 0.00, "unit": "µg/mL"},
      {"measurement": "Dmt-DALDA plasma concentration", "setting": "blue rat, 5 min", "value": 0.00, "unit": "µg/mL"},
      {"measurement": "Dmt-DALDA plasma concentration", "setting": "blue rat, 15 min", "value": 0.00, "unit": "µg/mL"},
      {"measurement": "Dmt-DALDA plasma concentration", "setting": "blue rat, 30 min", "value": 0.00, "unit": "µg/mL"},
      {"measurement": "Dmt-DALDA plasma concentration", "setting": "blue rat, 60 min", "value": 0.00, "unit": "µg/mL"},
      {"measurement": "Dmt-DALDA plasma concentration", "setting": "blue rat, 120 min", "value": 0.00, "unit": "µg/mL"},
      {"measurement": "Dmt-DALDA plasma concentration", "setting": "red rat, 0 min", "value": 0.00, "unit": "µg/mL"},
      {"measurement": "Dmt-DALDA plasma concentration", "setting": "red rat, 15 min", "value": 0.00, "unit": "µg/mL"},
      {"measurement": "Dmt-DALDA plasma concentration", "setting": "red rat, 30 min", "value": 0.00, "unit": "µg/mL"},
      {"measurement": "Dmt-DALDA plasma concentration", "setting": "red rat, 60 min", "value": 0.00, "unit": "µg/mL"},
      {"measurement": "Dmt-DALDA plasma concentration", "setting": "red rat, 120 min", "value": 0.00, "unit": "µg/mL"},
      {"measurement": "Dmt-DALDA plasma concentration", "setting": "white rat, 0 min", "value": 0.00, "unit": "µg/mL"},
      {"measurement": "Dmt-DALDA plasma concentration", "setting": "white rat, 5 min", "value": 0.00, "unit": "µg/mL"},
      {"measurement": "Dmt-DALDA plasma concentration", "setting": "white rat, 15 min", "value": 0.00, "unit": "µg/mL"},
      {"measurement": "Dmt-DALDA plasma concentration", "setting": "white rat, 30 min", "value": 0.00, "unit": "µg/mL"},
      {"measurement": "Dmt-DALDA plasma concentration", "setting": "white rat, 60 min", "value": 0.00, "unit": "µg/mL"},
      {"measurement": "Dmt-DALDA plasma concentration", "setting": "white rat, 120 min", "value": 0.00, "unit": "µg/mL"}
    ]}
  ]
}
